Common to all, as to assay type: cell-based
Series [1] has as its system A375 cells. The series can be described thus: Cell viability (MTT method). Conditions: A375/+Dox, 4 h, whole range of concentrations examined. As to the method: A375 cells were seeded at 2.5 × 10^4 cells/mL in 96-well plates (0.1 ml/well) and grown for 24 h. Overexpression of AC was induced with doxycycline at 1 µg/mL for 24 h. Cell viability was examined in triplicate samples by MTT method after treatment with DM120 at different concentrations or with the corresponding percentage of vehicle for 4 h.

Series [2] deals with T1, acid ceramidase (AC) (Homo sapiens, UniProt Q13510).
T1 sequence (Q13510 143-395 limits assumed): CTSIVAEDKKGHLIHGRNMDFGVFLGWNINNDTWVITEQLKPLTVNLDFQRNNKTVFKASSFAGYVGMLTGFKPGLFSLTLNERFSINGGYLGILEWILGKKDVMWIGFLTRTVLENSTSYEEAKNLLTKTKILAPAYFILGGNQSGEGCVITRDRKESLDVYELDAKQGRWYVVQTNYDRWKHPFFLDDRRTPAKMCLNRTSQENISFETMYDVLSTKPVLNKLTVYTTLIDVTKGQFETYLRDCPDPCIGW
T1 sequence (Q13510 22-142 limits assumed): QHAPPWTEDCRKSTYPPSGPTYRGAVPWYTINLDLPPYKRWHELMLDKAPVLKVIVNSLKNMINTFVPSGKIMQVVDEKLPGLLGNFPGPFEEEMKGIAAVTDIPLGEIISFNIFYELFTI
The series can be described thus: Fluorogenic AC activity in intact cells (substrate RBM14C12). Conditions: AC overexpressing A375 cells (A375/+Dox), 4 h, substrate RBM14C12 40 µM. Also noted: expressed in transfected cells; host or cells: A375/+Dox (overexpressing AC). As to the method: To determine AC activity in intact cells, A375 cells were seeded at 2.5 × 10^4 cells/mL in 96-well plates (0.1 ml/well) and grown for 24 h. Overexpression of AC was induced with doxycycline at 1 µg/mL for 24 h. Medium was replaced by DM120 at different concentrations and substrate RBM14C12 at a final concentration of 40 µM in DMEM. The plate was incubated for 4 h at 37°C in 5% CO2. The reaction was stopped with 25 µL of MeOH and then 100 µL of NalO4 (2.5 mg/mL in glycine-NaOH buffer, pH 10.6) was added. After incubation at 37°C for 1 h, 100 µL of 0.1 M glycine-NaOH buffer (pH 10.6) was added and fluorescence was measured spectrophotometrically at excitation and emission wavelengths of 355 and 460 nm, respectively. The same reaction mixture without cells was used as blank.

Series [3] concerns the target T1, acid ceramidase (AC). The series can be described thus: AC activity in intact cells by UPLC-HRMS quantification of RBM5-019 and reacylated products. Also on record: expressed in transfected cells; host or cells: A375/+Dox (overexpressing AC). Conditions: A375/+Dox, 4 h, decrease in RBM5-19 amounts by UPLC-HRMS. As to the method:
Cells were seeded at 5 × 10^5 cells/mL into 6 well plates (1 mL/well) and were allowed to adhere for 24 h. Medium was replaced with fresh medium containing RBM5-177, RBM5-019 or RBM2-37 (5 μM final concentration). After 30 min, medium was removed; cells were washed with 400 μL PBS and harvested with 400 μL Trypsin-EDTA and 600 μL of medium. NC recombinant enzyme, lysates from A375-AC overexpressing cells, MEF5 or microsomes from HeLa T-Rex ACER1-TET-ON and HeLa T-Rex ACER2-TET-ON cells stably overexpress ACER1 orACER2 respectively were incubated with RBM5-177 or RBM5-019 (10 μM final concentration) for 3 h in the corresponding ceramidase activity buffer. Cell pellets were resuspended with 100 μL of H2O and mixed with 750 μL of methanol: chloroform, 2:1. Samples were heated at 48°C overnight and next day, 75 μL of 1 M KOH in methanol were added, followed by 2 h incubation at 37°C. Afterwards, the saponification was neutralised with 75 μL of 1 M acetic acid and solvent was removed using a […] (Thermo Scientific). Sphingolipid extracts, fortified with internal standards (N-dodecanoylsphingosine, N-dodecanoylglucosylsphingosine, N-dodecanoylsphingosylphosphorylcoline and C17-sphinganine 0.2 nmol each) were solubilised in 150 μL of methanol. Samples were then centrifuged at 9,300 g for 3 min and 130 μL of the supernatant were injected to a Waters Aquity UPLC system connected to a Waters LCT Premier Orthogonal Accelerated Time of Flight Mass Spectrometer (Waters,Milford, MA, USA) operated in positive electrospray ionisation mode. Full scan spectra from 50 to 1500 Da were acquired and individual spectra were summed to produce data points each 0.2 s. Mass accuracy and reproducibility were maintained by using an independent reference spray by the LockSpray interference. The analytical column was a 100 mm x2.1 mm i.d., 1.7 μm C8 Acquity UPLC BEH (Waters). The two mobile phases were phase A: methanol/water/formic acid (74/25/1 v/v/v); phase B: methanol/formic acid (99/1 v/v), both also contained 5 mM ammonium formate. […]

Series [4] deals with T1, acid ceramidase (AC). Nature of the series: AC activity by flow cytometry with RBM5-177/CO-1 in intact cells. The settings on record: A375/+Dox, 4 h, RBM5-177 as substrate, labelling with CO-1 (1 µM, 10 min). Also on record: expressed in transfected cells; host or cells: A375/+Dox and FD/AC (overexpressing AC); A375/-Dox and A549 (endogenous AC). As to the method: Cells were seeded at 1 × 10^5 cells/mL into 6 well plates (1 mL/well) and were allowed to adhere for 24 h. Medium was replaced with fresh medium containing Soclac (5 µM final concentration) and incubated for 1 h. After this time, the medium was replaced with RBM5-177, RBM5-019 or RBM2-37 (5 µM final concentration) +/- Soclac and incubated for 20 min. In the experiments with DM120, the compound, Soclac and RBM5-177 were incubated together for 4 h. After probes incubation, the medium was replaced with fresh medium containing CO-1 (1 µM final concentration), and cells were incubated for 10 min. Then cells were washed 3 times with DMEM for 5 min at 37 °C, and finally washed with 400 µL PBS and harvested with 400 µL Trypsin-EDTA and 600 µL of medium. Pellets were resuspended with 200 µL of PBS and stained cells were analyzed by using a Guava EasyCyte™ flow cytometer (Merck Millipore, Billerica, MA) measuring green fluorescence (488/525 nm). Data analysis was performed using the Multicycle AV program (Phoenix Flow Systems, San Diego, CA).
A general note: In flow cytometry, cells or beads pass a laser one at a time.

Series [5] concerns CerS. The series can be described thus: CerS activity-dependence of labelling with RBM5-177 (confocal microscopy and UPLC-HRMS). The settings on record: A375/+Dox cells, FB1 100 µM, 24 h. As to the method: Cells were seeded at 5 × 10^5 cells/mL into 6 well plates (1 mL/well) and were allowed to adhere for 24 h. Medium was replaced with fresh medium containing RBM5-177, RBM5-019 or RBM2-37 (5 µM final concentration). After 30 min, medium was removed; cells were washed with 400 µL PBS and harvested with 400 µL Trypsin-EDTA and 600 µL of medium. NC recombinant enzyme, lysates from A375-AC overexpressing cells, MEF5 or microsomes from HeLa T-Rex ACER1-TET-ON and HeLa T-Rex ACER2-TET-ON cells stably overexpress ACER1 orACER2 respectively were incubated with RBM5-177 or RBM5-019 (10 µM final concentration) for 3 h in the corresponding ceramidase activity buffer. Cell pellets were resuspended with 100 µL of H2O and mixed with 750 µL of methanol: chloroform, 2:1. Samples were heated at 48°C overnight and next day, 75 µL of 1 M KOH in methanol were added, followed by 2 h incubation at 37°C. Afterwards, the saponification was neutralised with 75 µL of 1 M acetic acid and solvent was removed using a Speed Vac Savant SPD131 DDA (Thermo Scientific). […]
Cells were seeded at 1 × 10^5 cells/mL on glass-bottom plates and allowed to adhere for 24 h. […] Co-localization coefficients were measured using the JaCoP plugin (S. Bolte et al. J. Microsc. 2006, 224, 213-232) on the different stacks of images (at least n=4) with each stack containing 3-10 cells.

Series [6] deals with T1, acid ceramidase (AC). The series can be described thus: AC activity-dependence of labelling (fluorescence confocal microscopy). Also on record: expressed in transfected cells; host or cells: FD/AC (overexpressing AC). Conditions: A375/+Dox and A375/-Dox, with or without SOCLAC (Fig. 7A). As to the method: Cells were seeded at 1 × 10^5 cells/mL on glass-bottom plates and allowed to adhere for 24 h. For golgi staining, cells were incubated with 40 µL/well of CellLight Golgi-RFP BacMam 2.0 for 24 h. […] After this time, the medium was replaced with fresh medium containing CO-1 (1 µM final concentration), and cells were incubated for 10 min. Then cells were washed 3 times with DMEM for 5 min at 37 °C, 75 nM LysoTracker Red DND-99 or 75 nM Mitotracker in phenol red-free DMEM was added to stain lysosomes or mitochondria, and cells were kept in the incubator for microscope analysis. Staining was viewed with a Zeiss LSM 880 confocal microscope or Leica TCS SP8-Hyvolution. Image analysis was performed using Fiji software.^[7] To measure the Manders's and Pearson's coefficients a threshold including organelles and discarding the background was set. Co-localization coefficients were measured using the JaCoP plugin (S. Bolte et al. J. Microsc. 2006, 224, 213-232) on the different stacks of images (at least n=4) with each stack containing 3-10 cells.

The IC50 is the point on the concentration scale where inhibition reaches its midpoint.

For the molecule `CCCCCCCCCCCCC/C=C/[C@H](CO)NC(=O)C(C)(C)C` [DM120], the toxicity result in series [1] is on record as “without toxicity in the whole range of concentrations examined”. Moreover, the IC50 is 9.4 µM in series [2], 18 µM in series [3] and 27 µM in series [4].

On to `CCCC[C@@H](C)[C@@H](OC(=O)C[C@@H](CC(=O)O)C(=O)O)[C@H](C[C@@H](C)C[C@H](O)CCCC[C@@H](O)C[C@H](O)[C@H](C)N)OC(=O)C[C@@H](CC(=O)O)C(=O)O` [FB1, Fumonisin B1], for which the “effect on transacylation (N-acylderivatives)” value in series [5] (UPLC-HRMS (Fig. 4B)) is “transacylation was blocked”. The “effect on extralysosomal staining” value in series [5] (confocal microscopy (Fig. 4A)) was “prevented”.

On to `C[C@H](N)[C@H](O)CCCCCCCCCCCCN=[N+]=[N-]` [RBM5-019, (2S,3R)-2-Amino-15-azidopentadecan-3-ol], for which, in series [6], the “sensitivity of lysosome labelling to AC activity” value was “not sensitive to AC overexpression or blockade”.

The record behind these values is EP3925949A1, “AZIDO COMPOUNDS AND METHOD FOR MONITORING ACID CERAMIDASE ACTIVITY IN INTACT CELLS USING THEM” (Consejo Superior de Investigaciones Científicas (CSIC), priority 2020, dated 2021).
